Measurements taken from PMC3914206.

Legend:
Format in all cases: binding
Settings in all cases: Compound Concentration 10 µM
[1] = molecular target: T1, panel of 442 kinases (Homo sapiens, UniProt Q9BQI3)
T1 construct: purchased KINOMEscan
Excerpt: (§1) We assessed the selectivity of members of this scaffold using the KINOMEscan methodology across a near comprehensive panel of 442 kinases [[18,27]].

[2] = molecular target: T2, panel of 442 kinases (Homo sapiens, UniProt O94921)
T2 construct: purchased KINOMEscan
Excerpt: as §1

[3] = molecular target: T3, panel of 442 kinases (Homo sapiens, UniProt Q15208)
T3 construct: purchased KINOMEscan
Excerpt: as §1

T3 sequence (Q15208 whole entry): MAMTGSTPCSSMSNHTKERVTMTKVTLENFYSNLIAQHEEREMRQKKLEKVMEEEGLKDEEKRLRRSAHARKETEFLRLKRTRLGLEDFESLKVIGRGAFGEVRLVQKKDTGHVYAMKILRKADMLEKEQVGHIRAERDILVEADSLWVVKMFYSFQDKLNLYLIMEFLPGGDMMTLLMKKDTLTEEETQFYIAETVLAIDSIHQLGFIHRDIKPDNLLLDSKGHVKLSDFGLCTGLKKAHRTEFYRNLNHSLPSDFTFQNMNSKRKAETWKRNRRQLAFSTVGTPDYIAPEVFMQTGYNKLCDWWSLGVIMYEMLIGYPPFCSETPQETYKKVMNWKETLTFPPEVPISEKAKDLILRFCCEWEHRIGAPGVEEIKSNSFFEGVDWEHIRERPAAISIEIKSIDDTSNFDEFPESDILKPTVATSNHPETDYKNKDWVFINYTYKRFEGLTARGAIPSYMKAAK
T2 sequence (O94921 whole entry): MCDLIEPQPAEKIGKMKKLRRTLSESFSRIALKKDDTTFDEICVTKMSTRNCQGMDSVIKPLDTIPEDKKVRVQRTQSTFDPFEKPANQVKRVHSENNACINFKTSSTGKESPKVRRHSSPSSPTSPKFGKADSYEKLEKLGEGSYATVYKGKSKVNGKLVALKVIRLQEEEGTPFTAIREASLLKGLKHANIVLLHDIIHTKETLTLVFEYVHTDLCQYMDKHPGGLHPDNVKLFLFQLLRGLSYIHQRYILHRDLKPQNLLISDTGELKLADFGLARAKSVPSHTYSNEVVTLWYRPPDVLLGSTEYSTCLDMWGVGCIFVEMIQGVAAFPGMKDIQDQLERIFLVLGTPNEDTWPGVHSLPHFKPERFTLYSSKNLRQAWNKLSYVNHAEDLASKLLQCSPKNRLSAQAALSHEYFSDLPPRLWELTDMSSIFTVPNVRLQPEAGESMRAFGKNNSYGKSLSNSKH
T1 sequence (Q9BQI3 whole entry): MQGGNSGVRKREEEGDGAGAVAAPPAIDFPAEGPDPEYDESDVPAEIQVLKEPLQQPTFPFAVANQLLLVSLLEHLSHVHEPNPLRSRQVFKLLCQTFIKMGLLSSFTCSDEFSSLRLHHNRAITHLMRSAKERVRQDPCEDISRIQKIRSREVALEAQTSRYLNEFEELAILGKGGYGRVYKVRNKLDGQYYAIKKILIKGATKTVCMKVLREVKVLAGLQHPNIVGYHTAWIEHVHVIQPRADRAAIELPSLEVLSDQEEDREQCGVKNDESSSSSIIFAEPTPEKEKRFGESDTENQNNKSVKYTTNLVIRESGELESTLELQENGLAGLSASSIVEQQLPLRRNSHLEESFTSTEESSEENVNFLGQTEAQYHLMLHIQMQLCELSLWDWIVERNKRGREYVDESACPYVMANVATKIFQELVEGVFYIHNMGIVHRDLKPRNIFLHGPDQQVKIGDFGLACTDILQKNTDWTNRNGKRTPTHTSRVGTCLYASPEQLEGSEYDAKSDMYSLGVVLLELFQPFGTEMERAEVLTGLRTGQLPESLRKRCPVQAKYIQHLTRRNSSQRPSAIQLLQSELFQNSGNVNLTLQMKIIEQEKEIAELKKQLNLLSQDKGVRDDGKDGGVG

Row | SMILES | KINOMEscan: EIF2AK1 [1] | KINOMEscan: PFTK1 [2] | KINOMEscan: NDR1 [3]
1 | COc1cc(C(=O)N2CCC(N3CCN(C)CC3)CC2)ccc1Nc1ncc2c(n1)N(C)c1ccccc1C(=O)N2C [15 (LRRK2-IN-1)] | 100 | 81 | 96
2 | CCOc1cc(C(=O)N2CCC(N3CCN(C)CC3)CC2)ccc1Nc1ncc2c(n1)N(C1CCCC1)c1ccccc1C(=O)N2C [Compound 26] | 100 | 100 | 100
3 | COc1cc(C(=O)N2CCC(N3CCN(C)CC3)CC2)ccc1Nc1ncc2c(n1)N(C1CCCC1)c1ccccc1C(=O)N2C [Compound 25, 11-cyclopentyl-2-((2-methoxy-4-(4-(4-methylpiperazin-1-yl)piperidine-1-carbonyl)phenyl)amino)-5-methyl-5H-benzo[e]pyrimido[5,4-b][1,4]diazepin-6(11H)-one] | 100 | 100 | 100
